Measurements taken from patent US20090318446A1, “4-(1H-Indol-3-yl)-Pyrimidin-2-Ylamine Derivatives and Their Use in Therapy” (Cyclacel Limited, priority 2005, published 2009).

Key:
[1] = target: T1, aurora-A (Homo sapiens, UniProt O14965); assay: Aurora-A (human) kinase assay; format: biochemical; conditions: Table 3, values without asterisk; read-out: Kinase inhibition Aurora A
T1 construct: purchased Upstate, Dundee, UK
T1 sequence (O14965 1-403): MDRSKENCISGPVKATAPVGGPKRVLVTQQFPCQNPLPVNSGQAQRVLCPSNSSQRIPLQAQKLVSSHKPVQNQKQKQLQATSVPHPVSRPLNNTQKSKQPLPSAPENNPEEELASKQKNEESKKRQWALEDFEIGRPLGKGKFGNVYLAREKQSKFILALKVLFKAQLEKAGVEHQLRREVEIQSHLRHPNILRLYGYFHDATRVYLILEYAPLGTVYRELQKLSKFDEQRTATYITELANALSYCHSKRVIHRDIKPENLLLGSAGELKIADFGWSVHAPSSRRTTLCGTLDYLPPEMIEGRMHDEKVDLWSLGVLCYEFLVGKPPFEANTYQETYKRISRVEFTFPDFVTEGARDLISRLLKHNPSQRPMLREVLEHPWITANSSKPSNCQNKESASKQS
Experimental: (§1) This was achieved by measurement of incorporation of radioactive phosphate from ATP into Kemptide substrate (LRRASLG), upon phosphorylation by commercially obtained aurora-A (human, Upstate, Dundee, UK). Assays were performed using 96-well plates and appropriate assay buffers (20 mM Tris, 25 mM β-glycerophosphate, 5 mM EGTA, 1 mM DTT, 1 mM sodium vanadate, pH 7.5), into which were added 2-5 ng of active enzyme with 500 μM substrate (Kemptide). The reactions were initiated by addition of MgATP mix (15 mM MgCl2+100 μM ATP with 15-25 kBq per well of [γ-^32P]-ATP) and mixtures incubated for 30 min at 30° C. Reactions were stopped by addition of an equal volume of 75 mM aq orthophosphoric acid, followed by filtration through p81 filterplates (Whatman Polyfiltronics, Kent, UK). After washing 4 times with 75 mM aq orthophosphoric acid, plates were dried, scintillant added and incorporated radioactivity measured in a scintillation counter (TopCount, Packard Instruments, Pangbourne, Berks, UK). Compounds for kinase assay were made up as 10 mM stocks in DMSO and diluted into 10% DMSO in assay buffer. Data was analysed using curve-fitting software (XLfit version 4.0.2, IDBS, Guildford, Surrey, UK) to determine IC50 values (concentration of test compound which inhibits kinase activity by 50%).

[2] = tested on: Mia-PaCa-2; assay: MTT cytotoxicity assay, Mia-PaCa-2; format: cell-based; conditions: Homo sapiens, after incubation
Experimental: (§2) The compounds of the invention were subjected to a standard cellular proliferation assay using human tumour cell lines obtained from the ATCC (American Type Culture Collection, 10801 University Boulevard, Manessas, Va. 20110-2209, USA). […] C.; Thomas, D. G.; Darling, J. L. Anti Cancer Drugs 1996, 7, 331-8; Loveland, B. E.; Johns, T. G.; Mackay, 1. R.; Vaillant, F.; Wang, Z. X.; Hertzog, P. J. Biochemistry International 1992, 27, 501-10). In short: cells were seeded into 96-well plates according to doubling time and incubated overnight at 37° C. […] MTT was made up as a stock of 5 mg/mL in cell media and filter-sterilised. Media was removed from cells followed by a wash with 200 μL PBS. MTT solution was then added at 20 μL per well and incubated in the dark at 37° C. for 4 h MTT solution was removed and cells again washed with 200 μL PBS. MTT dye was solubilised with 200 μL per well of DMSO with agitation. Absorbance was read at 540 nm and data analysed using curve-fitting software (GraphPad Prism version 3.00 for Windows, GrapbPad Software, San Diego Calif. USA) to determine IC50 values (concentration of test compound which inhibits cell growth by 50%).

[3] = tested on: A2780; assay: MTT cytotoxicity assay, A2780; format: cell-based; conditions: Homo sapiens, after incubation
Experimental: as §2

[4] = target: T2, aurora-B (Homo sapiens, UniProt Q96GD4); assay: Aurora-B (human) kinase assay; format: biochemical; conditions: Table 3; read-out: Kinase inhibition Aurora B
T2 construct: purchased Upstate, Dundee, UK
T2 sequence (Q96GD4 whole entry): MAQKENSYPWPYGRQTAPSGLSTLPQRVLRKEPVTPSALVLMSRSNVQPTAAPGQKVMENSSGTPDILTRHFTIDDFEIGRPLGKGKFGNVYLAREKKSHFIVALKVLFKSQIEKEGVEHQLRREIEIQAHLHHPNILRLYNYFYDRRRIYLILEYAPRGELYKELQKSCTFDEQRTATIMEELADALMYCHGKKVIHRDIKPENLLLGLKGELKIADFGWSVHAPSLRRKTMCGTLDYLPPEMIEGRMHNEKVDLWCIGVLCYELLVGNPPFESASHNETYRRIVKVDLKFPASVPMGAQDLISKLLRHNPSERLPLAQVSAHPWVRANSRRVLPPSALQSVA
Experimental: as §1, with “obtained aurora-B” for “obtained aurora-A”, “added 75” for “added 2-5”, “of pre-activated” for “of active”, “for 60” for “for 30”
Aurora-B (human, Upstate, Dundee, UK) was pre-activated immediately prior to kinase assay in appropriate buffers (20 mM Tris, 25 mM β-glycerophosphate, 5 mM EGTA, 1 mM DTT, 1 mM sodium vanadate, pH 7.5) by incubating 15 μg of enzyme with 4 μg INCENP (Upstate, Dundee, UK) in the presence of MgATP mix (15 mM MgCl2+100 μM ATP) for 15 min at 30° C.

Structure (SMILES): COc1cc(Nc2nccc(-c3c[nH]c4ccccc34)n2)cc(OC)c1 [Compound 14, N-(3,5-dimethoxyphenyl)-4-(1H-indol-3-yl)pyrimidin-2-amine]
- IC50 [1]: 563 nM

Structure (SMILES): Cn1cc(-c2ccnc(Nc3ccc(N4CCOCC4)cc3)n2)c2ccccc21 [Compound 15, 4-(1-methyl-1H-indol-3-yl)-N-(4-morpholin-4-ylphenyl)pyrimidin-2-amine]
- IC50 [1]: 370 nM

Structure (SMILES): CC(=O)N1CCN(c2ccc(Nc3nccc(-c4cn(C)c5ccccc45)n3)cc2)CC1 [Compound 16, 4-(1-methyl-1H-indol-3-yl)-N-(4-acetylpiperazine-1-ylphenyl)pyrimidin-2-amine]
- IC50 [1]: 235 nM

Structure (SMILES): c1ccc2c(-c3ccnc(Nc4ccc5c(c4)OCO5)n3)c[nH]c2c1 [Compound 17, N-1,3-benzodioxol-5-yl-4-(1H-indol-3-yl)pyrimidin-2-amine]
- IC50 [1]: 742 nM

Structure (SMILES): O=C(C1CC1)n1cc(-c2ccnc(Nc3ccc(N4CCOCC4)cc3)n2)c2ccccc21 [Compound 18, 4-[1-(cyclopropylcarbonyl)-1H-indol-3-yl]-N-(4-morpholin-4-ylphenyl)pyrimidin-2-amine]
- IC50 [1]: 3360 nM

Structure (SMILES): CC(=O)n1cc(-c2ccnc(Nc3ccc(N4CCOCC4)cc3)n2)c2ccccc21 [Compound 19, 4-(1-acetyl-1H-indol-3-yl)-N-(4-morpholin-4-ylphenyl)pyrimidin-2-amine]
- IC50 [1]: 2190 nM

Structure (SMILES): CN1CCN(c2ccc(Nc3nccc(-c4c[nH]c5ccccc45)n3)cc2)CC1 [Compound 20, 4-(1H-indol-3-yl)-N-(4-methylpiperazin-1-ylphenyl)pyrimidin-2-amine]
- IC50 [1]: 434 nM

Structure (SMILES): COc1cccc2c(-c3ccnc(Nc4ccc(N5CCN(C(C)=O)CC5)cc4)n3)c[nH]c12 [Compound 21, 4-(7-methoxy-1H-indol-3-yl)-N-(4-acetylpiperazin-1-ylphenyl)pyrimidin-2-amine]
- IC50 [1]: 234 nM
- IC50 [2]: 1040 nM

Structure (SMILES): COc1ccc2c(-c3ccnc(Nc4ccc(N5CCN(C(C)=O)CC5)cc4)n3)c[nH]c2c1 [Compound 24]
- IC50 [1]: 210 nM
- IC50 [2]: 723 nM
- IC50 [3]: 576 nM

Structure (SMILES): CC(=O)N1CCN(c2ccc(Nc3nccc(-c4c[nH]c5c(Cl)cccc45)n3)cc2)CC1 [Compound 25]
- IC50 [1]: 559 nM

Structure (SMILES): CC(=O)N1CCN(c2ccc(Nc3nccc(-c4c[nH]c5cc(F)ccc45)n3)cc2)CC1 [Compound 26]
- IC50 [1]: 194 nM
- IC50 [4]: 175 nM

Structure (SMILES): CC(=O)N1CCN(c2ccc(Nc3nccc(-c4c[nH]c5ccccc45)n3)cc2C)CC1 [Compound 27, 4-(1H-indol-3-yl)-N-[(4-acetylpiperazin-1-yl)-3-methylphenyl]pyrimidin-2-amine]
- IC50 [1]: 276 nM
- IC50 [4]: 365 nM

Structure (SMILES): Cc1cc(Nc2nccc(-c3c[nH]c4ccccc34)n2)ccc1N1CCSCC1 [Compound 28, 4-(1H-indol-3-yl)-N-(3-methyl-4-thiomorpholin-4-ylphenyl)pyrimidin-2-amine]
- IC50 [1]: 856 nM
- IC50 [4]: 636 nM

Structure (SMILES): C[C@@H]1CN(c2ccc(Nc3nccc(-c4c[nH]c5ccccc45)n3)cc2)C[C@H](C)O1 [Compound 29, 4-(1H-indol-3-yl)-N-[(2R,6S)-2,6-dimethylmorpholin-4-ylphenyl]pyrimidin-2-amine]
- IC50 [1]: 386 nM

Structure (SMILES): C[C@H]1CN(c2ccc(Nc3nccc(-c4c[nH]c5ccccc45)n3)cc2)C[C@H](C)O1 [Compound 30, 4-(1H-indol-3-yl)-N-[(2S,6S)-2,6-dimethylmorpholin-4-ylphenyl]pyrimidin-2-amine]
- IC50 [1]: 1250 nM

Structure (SMILES): CC1CC(C)CN(c2ccc(Nc3nccc(-c4c[nH]c5ccccc45)n3)cc2)C1 (stereo not shown) [Compound 31, 4-(1H-indol-3-yl)-N-(3,5-dimethylpiperidin-1-ylphenyl)pyrimidin-2-amine]
- IC50 [1]: 4510 nM
